Data reported in US6673578B1, “Method for synthesizing DNA” (Takara Shuzo Co., Ltd., priority 1998, dated 2004).

Assays:
Assay type in all cases: biochemical
[1] = molecular target: T1, TaKaRa Taq DNA polymerase (Thermus aquaticus, UniProt P19821); experiment: Effects of acidic substances on TaKaRa Taq DNA polymerase, PCR of 8 kb fragment (Example 5(2)); set-up: key: ++: Intensive amplification being observed; +: Amplification being observed; ±: Slight amplification being observed; −: No amplification being observed; details: 10 U TaKaRa Taq, 100 pg λDNA, 25 μl, 30 cycles 98°C 5 s-68°C 3 min, added 0.25 ng polysaccharide-F, 0.25 ng dextran sulfate or 0.5 μg sodium alginate
T1 construct: purchased Takara Shuzo Co., Ltd
From the text: Using as acidic substances the sulfated-fucose-containing polysaccharide-F obtained by the process described in Item (1) of Example 5, dextran sulfate powder (manufactured by Onco), or sodium alginate (100 to 150 centipoises, manufactured by Wako Pure Chemicals), the effects of these acidic substances on the activity of TaKaRa Taq DNA polymerase (manufactured by Takara Shuzo Co., Ltd.) were examined.
A PCR reagent mixture comprising λDNA as a template, primers λ1 and λ7 as a primer pair and TaKaRa Taq DNA polymerase as a DNA polymerase was prepared, and PCR was carried out. The PCR reagent mixture was prepared so as to have the following composition.
Buffer for TaKaRa Taq DNA polymerase, 10 U of TaKaRa Taq DNA polymerase, 100 pg of λDNA, 0.2 mM each of DATP, dCTP, dGTP and dTTP, and 5 pmol each of primers λ1 and λ7 (final volume being 25 μl). Further, 0.25 ng of the sulfated-fucose-containing polysaccharide-F, 0.25 ng of dextran sulfate powder, or 0.5 μg of sodium alginate were added as acidic substances to the above PCR reagent mixture.
The reaction was carried out in 30 cycles for a total time period of PCR of about 110 minutes, wherein one cycle of reaction comprises a process consisting of 98° C., 5 seconds-68° C., 3 minutes. […]

Polymerase B [2] = experiment: Rapid PCR by combination of Polymerase B with acidic substance, 12 kb fragment (Example 6(2)); set-up: key: + to +++: Extent of amplification is shown in 3 grades.; + to +++: Extent of amplification is shown in 3 grades.; + to +++: Extent of amplification is shown in 3 grades; details: 0.5 μl Polymerase B, 10 pg λDNA, 25 μl, 30 cycles 98°C 5 s-68°C 3 min, added 0.75 ng polysaccharide-F or 5 μg sodium alginate
Protocol: A PCR reagent mixture comprising λDNA as a template and primers λ1 and λ9 as a primer pair was prepared, and PCR was carried out. The composition for a PCR reagent mixture is as follows.
Buffer for TaKaRa EX Taq DNA polymerase, 0.2 mM each of dATP, dCTP, dGTP and dTTP, 10 pg of λDNA, 0.5 μl of Polymerase B and 5 pmol each of primers λ1 and λ9 (final volume being 25 μl). Further, 0.75 ng of sulfated-fucose-containing polysaccharide-F or 5 μg of sodium alginate was added, respectively, to the above PCR reagent mixture.
(§1) The reaction was carried out in 30 cycles, wherein one cycle of reaction comprises a process consisting of 98° C., 5 seconds-68° C., 3 minutes. After the termination of reaction, 5 μl of the resulting sample was electrophoresed on 1% agarose gel containing ethidium bromide in an amount of 0.00005%, thereby confirming an amplified fragment.

Polymerase B [3] = experiment: Combination of spergualins and acidic substances with Polymerase B, 10 kb fragment of λDNA (Example 8(1)); set-up: key: + to ++++: Extent of amplification is shown in 4 grades.; + to ++++: Extent of amplification is shown in 4 grades.; + to ++++: Extent of amplification is shown in 4 grades.; + to ++++: Extent of amplification is shown in 4 grades.; −: No amplification being observed; details: No 15-deoxyspergualin/2.5 μg sodium alginate, 0.5 μl Polymerase B, 10 pg λDNA, 30 cycles 98°C 5 s-68°C 90 s
Protocol: (1) A PCR reagent mixture comprising λDNA as a template and primers λ1 and λ8 as a primer pair was prepared, and rapid PCR was carried out. In this PCR, Polymerase B was used. As the spergualins, 15-deoxyspergualin trihydrochloride was used, and as the acidic substances, sodium alginate (manufactured by Wako Pure Chemicals) was used. The composition for a PCR reagent mixture is shown below.
50 mM Tris-acetate buffer (pH 8.5), 0.2 mM each of dATP, dCTP, dGTP and dTTP, 3 mM magnesium acetate, 50 mM potassium acetate, 10 pg of λDNA, 10 pmol each of primers λ1 and λ8. To the above PCR reagent mixture was added 0.5 μl of Polymerase B, and further 15-deoxyspergualin trihydrochloride and sodium alginate were added in combination at concentrations shown in Table 10, making up a final volume of 50 μl. In addition, as controls, there were respectively prepared a PCR reagent mixture in which 2.5 μg of sodium alginate was added without adding 15-deoxyspergualin trihydrochloride, and a PCR reagent mixture in which both 15-deoxyspergualin trihydrochloride and sodium alginate were not added.
Rapid PCR was carried out in 30 cycles for a total time period of PCR of about 65.5 minutes, wherein one cycle of reaction comprises a process consisting of 98° C., 5 seconds-68° C., 90 seconds. […]

Polymerase A [4] = experiment: Rapid PCR by combination of Polymerase A with acidic substance, about 10 kb fragment (Example 6(1)); set-up: key: ++: Intensive amplification being observed; +: Amplification being observed; ±: Slight amplification being observed; −: No amplification being observed; details: 0.5 μl Polymerase A, 10 pg λDNA, 2.5 μg sodium alginate, 30 cycles 98°C 5 s-68°C 75 s
Protocol: (1) Rapid PCR by Combination of Polymerase A with Acidic Substance Using λDNA as template, a PCR reagent mixture comprising λDNA as a template, primers λ1 and λ8 as a primer pair was prepared, and PCR was carried out. The composition for a PCR reagent mixture is as follows.
50 mM Tris-acetate (pH 8.5), 0.2 mM each of dATP, dCTP, dGTP and dTTP, 3 mM magnesium acetate, 50 mM potassium acetate, 10 pg of λDNA, 0.5 μl of Polymerase A and 10 pmol each of primers λ1 and λ8 (final volume being 25 μl). Further, 2.5 μg of sodium alginate was added to the above PCR reagent mixture. As a control, a PCR reagent mixture without adding sodium alginate was also prepared.
Reaction Conditions: The reaction was carried out in 30 cycles, wherein one cycle of reaction comprises a process consisting of 98° C., 5 seconds-68° C., 75 seconds. The reaction was carried out in fast mode using TaKaRa PCR Thermal Cycler PERSONAL (manufactured by Takara Shuzo Co., Ltd.).
After the termination of reaction, 6 μl each of the resulting sample was electrophoresed on 1% agarose gel containing ethidium bromide in an amount of 0.00005%, thereby confirming an amplified fragment of about 10 kb.

Polymerase A [5] = experiment: Combination of spergualins and acidic substances with Polymerase A, 20 kb fragment of E. coli genomic DNA (Example 8(2)); set-up: key: ++: Intensive amplification being observed; +: Amplification being observed; ±: Slight amplification being observed; −: No amplification being observed; details: No 15-deoxyspergualin/2.5 μg sodium alginate, 0.5 μl Polymerase A, 5 ng E. coli genomic DNA, 30 cycles 98°C 5 s-68°C 3 min
Protocol: (2) The effects of the combination of spergualins and acidic substances on the DNA polymerase were studied in a case where template DNA was E. coli genomic DNA. The composition for a PCR reagent mixture is shown below.
The composition for the PCR reagent mixture was the same as that in Item (1) of Example 8, except for using 5 ng of E. coli genomic DNA (manufactured by Takara Shuzo Co., Ltd.) and 10 pmol each of primers of Eco-1 and Eco-6. To the above PCR reagent mixture was added 0.5 μl of Polymerase A, and further were added in combination 2.5 μg of sodium alginate and 15-deoxyspergualin trihydrochloride so as to have a final concentration of 1 μM, 5 μM or 10 μM, respectively, making up a final volume of 50 μl. In addition, as controls, there were respectively prepared a PCR reagent mixture in which 2.5 μg of sodium alginate was only added without adding 15-deoxyspergualin trihydrochloride, and a PCR reagent mixture in which both 15-deoxyspergualin trihydrochloride and sodium alginate were not added.
Rapid PCR was carried out in 30 cycles for a total time period of PCR of about 110 minutes, wherein one cycle of reaction comprises a process consisting of 98° C., 5 seconds-68° C., 3 minutes. […]

λDNA = experiment: Effect of amount of DNA polymerase and acidic substance, PCR of 10 kb fragment (Example 7); details: sodium alginate 2.5 μg added to Polymerase B; image analyzer FM-BIO
Protocol: A PCR reagent mixture comprising λDNA as a template and primers λ1 and λ8 as a primer pair was prepared, and PCR was carried out. In this PCR, TaKaRa EX Taq DNA polymerase and Polymerase B were used. The composition for a PCR reagent mixture is shown below.
Buffer for TaKaRa EX Taq DNA polymerase, 0.2 mM each of dATP, dCTP, dGTP and dTTP, 10 pg of λDNA, 1.25 U of TaKaRa EX Taq DNA polymerase or 0.5 μl of Polymerase B and 10 pmol each of primers λ1 and λ8 (final volume being 50 μl).
Further, to the above PCR reagent mixture was added 2.5 μg of sodium alginate, to prepare a PCR reagent mixture.
as §1, with “30 cycles for a total period for PCR of about 80 minutes,” for “30 cycles,”, “C., 2” for “C., 3”, “reaction, 8” for “reaction, 5”

T1 sequence (P19821 whole entry, the tested form may be a part): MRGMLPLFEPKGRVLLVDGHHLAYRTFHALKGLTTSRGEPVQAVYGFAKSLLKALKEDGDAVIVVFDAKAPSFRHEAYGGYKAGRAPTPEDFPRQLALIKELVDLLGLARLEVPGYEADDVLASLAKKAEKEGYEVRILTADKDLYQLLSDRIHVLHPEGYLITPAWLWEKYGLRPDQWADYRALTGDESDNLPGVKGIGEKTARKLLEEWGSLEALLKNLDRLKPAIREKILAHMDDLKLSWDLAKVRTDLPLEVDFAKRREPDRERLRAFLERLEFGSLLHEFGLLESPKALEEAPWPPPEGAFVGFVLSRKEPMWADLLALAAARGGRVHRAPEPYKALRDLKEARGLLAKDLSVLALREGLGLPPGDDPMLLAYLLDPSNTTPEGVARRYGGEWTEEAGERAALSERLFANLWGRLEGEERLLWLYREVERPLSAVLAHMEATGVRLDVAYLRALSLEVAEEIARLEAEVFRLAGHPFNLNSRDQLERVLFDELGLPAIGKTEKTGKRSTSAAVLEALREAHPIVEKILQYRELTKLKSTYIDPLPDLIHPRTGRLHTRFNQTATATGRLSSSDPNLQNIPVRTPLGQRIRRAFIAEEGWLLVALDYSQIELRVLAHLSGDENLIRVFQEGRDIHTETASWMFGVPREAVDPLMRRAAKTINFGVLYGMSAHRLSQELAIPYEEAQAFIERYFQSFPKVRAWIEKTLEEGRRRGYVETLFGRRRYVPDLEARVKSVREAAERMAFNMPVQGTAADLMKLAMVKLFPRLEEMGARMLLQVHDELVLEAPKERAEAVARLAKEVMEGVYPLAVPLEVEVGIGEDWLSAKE

Substance | Amplification Results [1] | Amplification Results (Polymerase B [2]) | Amplification Results (Polymerase B [3]) | Amplification Results (Polymerase A [4]) | Amplification Results (Polymerase A [5]) | Amount of the amplified product compared to the case where no sodium alginate was added (λDNA)
dextran sulfate [Dextran Sulfate Powder] | ++ |  |  |  |  | 
sodium alginate | ++ | +++ | + | ++ | ± | about five times
